According to US20110118314A1, “PIPERIDINE ANALOGS AS GLYCOGEN SYNTHASE ACTIVATORS” (priority 2009, published 2011):

Test system: glycogen synthase
Assay: Glycogen Synthase (GS) Assay
Format: biochemical
Conditions: for EC50: compound concentration needed to give 50% maximum activation; for GS SC200: compound concentration needed to stimulate 200% of the enzyme activity
Protocol: The following tests were carried out in order to determine the activity of the compounds of formula (I).
Twelve μL per well of substrate solution containing glycogen (4.32 mg/mL), 2.67 mM UDP-glucose, 21.6 mM phospho(enol)pyruvate and 2.7 mM NADH in 30 mM glycylglycine, pH 7.3 buffer was added into a polystyrene 384-well assay plate (BD Biosciences).
Compound solutions (8 μL/well) at various concentrations (0-300 μM) were added to the assay plate (columns 5-24). Compound solution contains 30 mM glycylglycine, pH 7.3, 40 mM KCl, 20 mM MgC12, 9.2% DMSO, with (columns 15-24) or without (columns 5-14) 20 mM glucose 6-phosphate.
Enzyme solution (12 μL/well) containing glycogen synthase (16.88 μg/mL), pyruvate kinase (0.27 mg/mL), lactate dehydrogenase (0.27 mg/mL) in 50 mM Tris-HCl, pH 8.0, 27 mM DTT and bovine serum albumin (BSA, 0.2 mg/mL) was added to the assay plate (columns 3-24). As a blank control, enzyme solution without glycogen synthase was added into the top half wells of columns 1-2. To the bottom half wells of columns 1-2 were added a known activator, glucose 6-phosphate (at final concentration 5 mM) in addition to the enzyme solution. The reaction mixture was incubated at room temperature. The assay plate was then read for absorbance at 340 nm on an Envision reader every 3 minutes up to a total of 15 minutes.
The enzyme activity (with or without compound) was calculated by the reaction rate and represented by the optical density change (SOD) per minute. Percent stimulation of glycogen synthase activity by a compound at various concentrations was calculated by the following formula: […]
where Rs is the reaction rate of the enzyme in the presence of compound and Rt is the reaction rate of the enzyme in the absence of compound.
SC200 is defined as the compound concentration that is needed to stimulate 200% of the enzyme activity. EC50 is defined as the compound concentration that is needed to give 50% maximum activation.
Compounds from Example 1 through Example 36 were assayed according to assay procedures described above and the results are listed in Table 1 below: […]

Structure (SMILES)	EC50 [µM]	GS SC200 [µM]
COc1cc(F)c(F)cc1-c1ccc(OCC2CCCN(C(=O)N(CCC(=O)O)Cc3ccccc3)C2)cc1 (stereo not shown) [Example 28, 3-{Benzyl-[3-(4′,5′-difluoro-2′-methoxy-biphenyl-4-yloxymethyl)-piperidine-1-carbonyl]-amino}-propionic acid]	6.29	2.52
COc1cc(F)c(F)cc1-c1ccc(OCC2CCCN(C(=O)[C@H](CC(=O)O)N(C)C(C)=O)C2)cc1 (stereo partly drawn) [Example 13, (S)-3-(Acetyl-methyl-amino)-4-[3-(4′,5′-difluoro-2′-methoxy-biphenyl-4-yloxymethyl)-piperidin-1-yl]-4-oxo-butyric acid]	12.3	2.12
COc1cc(F)c(F)cc1-c1ccc(OCC2CCCN(C(=O)N3CCC[C@H]3C(=O)O)C2)cc1 (stereo partly drawn) [Example 27, (S)-1-[3-(4′,5′-Difluoro-2′-methoxy-biphenyl-4-yloxymethyl)-piperidine-1-carbonyl]-pyrrolidine-2-carboxylic acid]	1.29	0.22
COc1cc(F)c(F)cc1-c1ccc(OCC2CCCN(C(=O)N(CC(=O)O)Cc3ccccc3)C2)cc1 (stereo not shown) [Example 22, {Benzyl-[3-(4′,5′-difluoro-2′-methoxy-biphenyl-4-yloxymethyl)-piperidine-1-carbonyl]-amino}-acetic acid]	2.65	0.12
COc1cc(F)c(F)cc1-c1ccc(OCC2CCCN(C(=O)N(CC(=O)NS(C)(=O)=O)Cc3ccccc3)C2)cc1 (stereo not shown) [Example 34, 3-(4′,5′-Difluoro-2′-methoxy-biphenyl-4-yloxymethyl)-piperidine-1-carboxylic acid benzyl-(2-methanesulfonylamino-2-oxo-ethyl)-amide]	0.52	0.07
COc1cc(F)c(F)cc1-c1ccc(OCC2CCCN(C(=O)N(C)Cc3nnn[nH]3)C2)cc1 (stereo not shown) [Example 30, 3-(4′,5′-Difluoro-2′-methoxy-biphenyl-4-yloxymethyl)-piperidine-1-carboxylic acid methyl-(1H-tetrazol-5-ylmethyl)-amide]	8.29	1.38
COc1cc(F)c(F)cc1-c1ccc(OCC2CCCN(C(=O)CC(=O)NO)C2)cc1 (stereo not shown) [Example 6, 3-[3-(4′,5′-Difluoro-2′-methoxy-biphenyl-4-yloxymethyl)-piperidin-1-yl]-N-hydroxy-3-oxo-propionamide]	5.54	2.37
COc1cc(F)c(F)cc1-c1ccc(OCC2CCCN(C(=O)[C@H](CC(=O)O)NC(=O)OC(C)(C)C)C2)cc1 (stereo partly drawn) [Example 12, (S)-3-tert-Butoxycarbonylamino-4-[3-(4′,5′-difluoro-2′-methoxy-biphenyl-4-yloxymethyl)-piperidin-1-yl]-4-oxo-butyric acid]	11.1	3.74
COc1cc(F)c(F)cc1-c1ccc(OC[C@H]2CCCN(C(=O)CC(=O)O)C2)cc1 (single isomer, unassigned) [Example 3]	0.35	0.21
COc1cc(F)c(F)cc1-c1ccc(OCC2CCCN(C(=O)[C@@H](CC(=O)O)NC(C)=O)C2)cc1 (stereo partly drawn) [Example 11, (R)-3-Acetylamino-4-[3-(4′,5′-difluoro-2′-methoxy-biphenyl-4-yloxymethyl)-piperidin-1-yl]-4-oxo-butyric acid]	1.93	0.42
COc1cc(F)c(F)cc1-c1ccc(OCC2CCCN(C(=O)N(C)CC(=O)O)C2)cc1 (stereo not shown) [Example 25, {[3-(4′,5′-Difluoro-2′-methoxy-biphenyl-4-yloxymethyl)-piperidine-1-carbonyl]-methyl-amino}-acetic acid]	0.29	0.02
COc1cc(F)c(F)cc1-c1ccc(OCC2CCCN(C(=O)C(C(=O)O)C(C)(C)C)C2)cc1 (stereo not shown) [Example 19, 2-[3-(4′,5′-Difluoro-2′-methoxy-biphenyl-4-yloxymethyl)-piperidine-1-carbonyl]-3,3-dimethyl-butyric acid]	5.35	2.21
COc1cc(F)c(F)cc1-c1ccc(OCC2CCCN(C(=O)C3CCS(=O)(=O)N3)C2)cc1 (stereo not shown) [Example 21, [3-(4′,5′-Difluoro-2′-methoxy-biphenyl-4-yloxymethyl)-piperidin-1-yl]-(1,1-dioxido-3-isothiazolidin-3-yl)-methanone]	7.3	–
COc1cc(F)c(F)cc1-c1ccc(OCC2CCCN(C(=O)N(C)CC(=O)NS(C)(=O)=O)C2)cc1 (stereo not shown) [Example 31, 3-(4′,5′-Difluoro-2′-methoxy-biphenyl-4-yloxymethyl)-piperidine-1-carboxylic acid (2-methanesulfonylamino-2-oxo-ethyl)-methyl-amide]	0.38	0.11
COc1cc(F)c(F)cc1-c1ccc(OC[C@H]2CCCN(C(=O)N(C)CC(=O)NS(C)(=O)=O)C2)cc1 [Example 32, (S)-3-(4′,5′-Difluoro-2′-methoxy-biphenyl-4-yloxymethyl)-piperidine-1-carboxylic acid (2-methanesulfonylamino-2-oxo-ethyl)-methyl-amide]	0.2	0.06
COc1cc(F)c(F)cc1-c1ccc(OCC2CCCN(C(N)=O)C2)cc1 (stereo not shown) [Example 9, 3-(4′,5′-Difluoro-2′-methoxy-biphenyl-4-yloxymethyl)-piperidine-1-carboxylic acid amide]	6.26	2.22
COc1cc(F)c(F)cc1-c1ccc(OCC2CCN(C(=O)N(C)CC(=O)O)C2)cc1 (stereo not shown) [Example 26, {[3-(4′,5′-Difluoro-2′-methoxy-biphenyl-4-yloxymethyl)-pyrrolidine-1-carbonyl]-methyl-amino}-acetic acid]	24.7	5.97
CCC(C(=O)O)C(=O)N1CCCC(COc2ccc(-c3cc(F)c(F)cc3OC)cc2)C1 (stereo not shown) [Example 18, 2-[3-(4′,5′-Difluoro-2′-methoxy-biphenyl-4-yloxymethyl)-piperidine-1-carbonyl]-butyric acid]	0.98	–
COc1cc(F)c(F)cc1-c1ccc(OCC2CCCN(C(=O)CC(=O)O)C2)cc1 (stereo not shown) [Example 2, 3-[3-(4′,5′-Difluoro-2′-methoxy-biphenyl-4-yloxymethyl)-piperidin-1-yl]-3-oxo-propionic acid]	0.51	0.05
COc1cc(F)c(F)cc1-c1ccc(OC[C@@H]2CCCN(C(=O)N(CC(=O)O)Cc3ccccc3)C2)cc1 (single isomer, unassigned) [Example 23]	0.95	0.23
COc1cc(F)c(F)cc1-c1ccc(OCC2CCCN(C(=O)[C@@H](CC(=O)O)NC(=O)OC(C)(C)C)C2)cc1 (stereo partly drawn) [Example 10, (R)-3-tert-Butoxycarbonylamino-4-[3-(4′,5′-difluoro-2′-methoxy-biphenyl-4-yloxymethyl)-piperidin-1-yl]-4-oxo-butyric acid]	5.71	1.51
COc1cc(F)c(F)cc1-c1ccc(OCC2CCCN(C(=O)[C@H](C)CC(=O)O)C2)cc1 (stereo partly drawn) [Example 8, (R)(+)-4-[3-(4′,5′-Difluoro-2′-methoxy-biphenyl-4-yloxymethyl)-piperidin-1-yl]-3-methyl-4-oxo-butyric acid]	8.03	2.35
COc1cc(F)c(F)cc1-c1ccc(OCC2CCN(C(=O)N(CCC(=O)O)Cc3ccccc3)C2)cc1 (stereo not shown) [Example 29, 3-{Benzyl-[3-(4′,5′-difluoro-2′-methoxy-biphenyl-4-yloxymethyl)-pyrrolidine-1-carbonyl]-amino}-propionic acid]	10.4	2.55
COc1cc(F)c(F)cc1-c1ccc(OCC2CCCN(C(=O)C3CN(C(C)=O)CC3C(=O)O)C2)cc1 (stereo not shown) [Example 15, 1-Acetyl-4-[3-(4′,5′-difluoro-2′-methoxy-biphenyl-4-yloxymethyl)-piperidine-1-carbonyl]-pyrrolidine-3-carboxylic acid]	5.78	3.65
COc1cc(F)c(F)cc1-c1ccc(OCC2CCCN(C(=O)CC(N)=O)C2)cc1 (stereo not shown) [Example 20, 3-[3-(4′,5′-Difluoro-2′-methoxy-biphenyl-4-yloxymethyl)-piperidin-1-yl]-3-oxo-propionamide]	12.7	6.34
COc1cc(F)c(F)cc1-c1ccc(OC[C@@H]2CCCN(C(=O)CC(=O)O)C2)cc1 (single isomer, unassigned) [Example 4]	1.74	1.18
COc1cc(F)c(F)cc1-c1ccc(OCC2CCN(C(=O)N(CC(=O)NS(C)(=O)=O)Cc3ccccc3)C2)cc1 (stereo not shown) [Example 35, 3-(4′,5′-Difluoro-2′-methoxy-biphenyl-4-yloxymethyl)-pyrrolidine-1-carboxylic acid benzyl-(2-methanesulfonylamino-2-oxo-ethyl)-amide]	0.82	0.28
